Test results published in ChEMBL document CHEMBL1201862, “PubChem BioAssay data set” (2004).
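Five concentrations, 48 hours, 96-well plates. GI50 = concentration required for 50% inhibition of growth.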 The source made the active and inactive calls. No stated cut-off is given here; in the data, active = GI50 up to about 1.1 µM and inactive = higher.

Assays:
Assay in all cases: NCI tumour cell line growth inhibition, 48 h
[1] = test system: NCI-H23
[2] = test system: UO-31
[3] = test system: SK-MEL-5
[4] = test system: OVCAR-8
[5] = test system: SK-MEL-28
[6] = test system: KM12
[7] = test system: CAKI-1
[8] = test system: HL-60
[9] = test system: HOP-92
[10] = test system: LOX IMVI
[11] = test system: K562
[12] = test system: SN12C
[13] = test system: OVCAR-5
[14] = test system: CCRF-CEM
[15] = test system: MOLT-4
[16] = test system: SK-OV-3

Measured: GI50

CN(C)c1ccc(/C=c2\sc3nc4ccccc4n3c2=O)cc1
inactive: [1] > 100 µM | [2] > 100 µM | [3] > 100 µM | [4] > 100 µM | [5] > 100 µM | [6] > 100 µM | [7] > 100 µM | [8] > 100 µM | [9] > 100 µM | [10] > 100 µM | [11] > 100 µM | [12] > 100 µM | [13] > 100 µM

COC(=O)[C@@H]1C(=O)O[C@@H](c2ccc3c(c2)OCO3)[C@@H]1C(=O)OC.COC(=O)[C@H]1C(=O)O[C@@H](c2ccc3c(c2)OCO3)[C@@H]1C(=O)OC
inactive: [1] > 100 µM | [2] > 100 µM | [3] > 100 µM | [4] > 100 µM | [5] > 100 µM | [6] > 100 µM | [14] > 100 µM | [7] > 100 µM | [8] > 100 µM | [9] 43.8 µM | [15] > 100 µM | [10] > 100 µM | [11] > 100 µM | [16] > 100 µM | [12] > 100 µM | [13] > 100 µM

Cc1cc(C)nc(NS(=O)(=O)c2ccc(Nc3c4ccc(Cl)cc4nc4c(C(=O)Nc5ccc(S(N)(=O)=O)cc5)cccc34)cc2)n1
inactive: [1] 15.1 µM | [2] 18.6 µM | [4] 16.9 µM | [5] 33.8 µM | [6] 14.2 µM | [14] 25.1 µM | [15] 9.77 µM | [10] 16 µM | [11] 25.1 µM | [16] 13.9 µM | [12] 15 µM | [13] 14.7 µM

C/C=C1/C=CC2c3[nH]c4ccccc4c3CCN2C1 (stereo unspecified)
inactive: [1] > 400 µM | [3] 138 µM | [4] > 400 µM | [5] > 400 µM | [6] > 400 µM | [14] > 400 µM | [7] > 400 µM | [8] > 400 µM | [9] 199 µM | [15] > 400 µM | [10] > 400 µM | [11] > 400 µM | [16] > 400 µM | [12] > 400 µM

CCN(CC)CC(C(C)=O)C(c1ccccc1)c1c(O)c2ccccc2oc1=O (stereo unspecified)
inactive: [2] > 100 µM | [3] > 100 µM | [4] > 100 µM | [5] > 100 µM | [6] > 100 µM | [14] > 100 µM | [7] > 100 µM | [8] > 100 µM | [15] > 100 µM | [10] > 100 µM | [11] > 100 µM | [16] > 100 µM | [12] > 100 µM | [13] > 100 µM

O=C1OC(/C=C/c2ccccc2)C(=O)C1=O (stereo unspecified)
inactive: [1] > 100 µM | [2] > 100 µM | [5] > 100 µM | [6] > 100 µM | [14] > 100 µM | [8] > 100 µM | [9] > 100 µM | [15] > 100 µM | [11] > 100 µM | [16] > 100 µM | [13] > 100 µM

COc1ccc(NC(=O)CC/C(CC(=O)c2ccco2)=N/Nc2ccc([N+](=O)[O-])cc2[N+](=O)[O-])cc1
inactive: [1] 14.3 µM | [2] > 100 µM | [3] 48.4 µM | [4] > 100 µM | [5] > 100 µM | [6] > 100 µM | [14] 23.7 µM | [7] > 100 µM | [8] 30.1 µM | [9] 34.4 µM | [15] 29.3 µM | [10] 39.7 µM | [11] 32 µM | [16] > 100 µM | [12] > 100 µM | [13] > 100 µM

COCCCCCC(=O)CP(=O)(OC)OC
inactive: [1] > 100 µM | [2] > 100 µM | [3] > 100 µM | [4] > 100 µM | [5] > 100 µM | [6] > 100 µM | [14] > 100 µM | [7] > 100 µM | [8] 86.3 µM | [9] > 100 µM | [15] > 100 µM | [10] > 100 µM | [11] > 100 µM | [16] > 100 µM | [12] > 100 µM | [13] > 100 µM

COc1ccc(C2NC(c3ccc(OC)cc3)C(C)C(=O)C2C)cc1 (stereo unspecified)
inactive: [1] > 100 µM | [2] 60 µM | [4] > 100 µM | [5] > 100 µM | [6] > 100 µM | [14] > 100 µM | [8] > 100 µM | [9] > 100 µM | [15] 46.7 µM | [10] > 100 µM | [11] 42.7 µM | [16] > 100 µM | [12] > 100 µM | [13] 23.4 µM
